{"source": "paper PMC9750798", "about": "“A metabotropic glutamate receptor affects the growth and development of Schistosoma japonicum” (Frontiers in Microbiology, 2022)", "biological_target": "T1, SjGRM7 (Schistosoma japonicum, UniProt A0A4Z2D6G5)", "T1 construct": "gene EWB00_004136; S. mansoni homologue is Smp_128940", "T1 sequence (A0A4Z2D6G5 24-1036)": "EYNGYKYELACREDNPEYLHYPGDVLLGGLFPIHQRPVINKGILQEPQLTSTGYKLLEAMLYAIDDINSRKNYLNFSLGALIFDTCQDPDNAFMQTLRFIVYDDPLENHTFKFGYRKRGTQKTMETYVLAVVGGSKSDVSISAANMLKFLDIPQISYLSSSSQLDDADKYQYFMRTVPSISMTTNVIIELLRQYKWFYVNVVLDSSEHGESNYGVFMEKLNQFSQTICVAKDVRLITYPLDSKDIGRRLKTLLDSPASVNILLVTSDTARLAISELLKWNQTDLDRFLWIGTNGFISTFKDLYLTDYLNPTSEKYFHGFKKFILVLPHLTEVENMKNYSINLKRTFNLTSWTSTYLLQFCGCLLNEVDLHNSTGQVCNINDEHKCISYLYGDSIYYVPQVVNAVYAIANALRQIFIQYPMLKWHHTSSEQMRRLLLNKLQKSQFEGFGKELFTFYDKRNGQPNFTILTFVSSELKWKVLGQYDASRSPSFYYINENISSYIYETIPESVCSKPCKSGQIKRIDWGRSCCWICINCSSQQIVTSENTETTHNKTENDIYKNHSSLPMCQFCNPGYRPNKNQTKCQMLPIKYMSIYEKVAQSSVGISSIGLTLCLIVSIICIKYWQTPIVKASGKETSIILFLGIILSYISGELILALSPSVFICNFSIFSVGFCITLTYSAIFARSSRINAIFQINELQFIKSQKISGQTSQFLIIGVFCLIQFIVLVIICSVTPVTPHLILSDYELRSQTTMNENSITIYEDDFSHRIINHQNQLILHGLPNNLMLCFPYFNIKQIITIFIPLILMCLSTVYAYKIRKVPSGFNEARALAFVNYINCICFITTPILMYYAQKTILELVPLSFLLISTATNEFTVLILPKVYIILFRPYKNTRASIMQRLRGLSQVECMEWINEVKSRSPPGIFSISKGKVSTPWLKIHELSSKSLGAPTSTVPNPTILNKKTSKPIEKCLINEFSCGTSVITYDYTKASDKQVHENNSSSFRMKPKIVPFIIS", "experiment": "Fluo-4 calcium mobilization in transfected HEK293T cells", "assay_type": "cell-based", "conditions": "agonist; co-expressed G-alpha16; dose series", "data": [{"smiles": "N[C@@H](CCC(=O)O)C(=O)O", "note": "[L-glutamate]", "values": [{"measurement": "Fluo-4 calcium mobilization in transfected HEK293T cells", "result": "SjGRM and SjGRM7 responded only to L-glutamate"}]}]}
